In US20230303494A1, “BENZYLAMINE DERIVATIVE, PREPARATION METHOD THEREFOR AND USE THEREOF” (ACADEMY OF MILITARY MEDICAL SCIENCES, priority 2020, published 2023):

Assays:
PD-1/PD-L1 interaction = PD-1/PD-L1 interaction (Homo sapiens (Human), UniProt Q9NZQ7); assay: PD-1/PD-L1 Binding Assay kit (Cisbio), HTRF; settings: 8-10 concentrations, read-out: IC50 of inhibition of PD-1/PD-L1 interaction
[1] = tested on: Human peripheral blood mononuclear cells (PBMCs); assay: Promotion of IFN-γ secretion in PBMCs treated with anti-CD3/anti-CD28 and PDL1/FC fusion protein (ELISA); assay type: cell-based; settings: for IFN-γ / Increase rate of IFN-γ expression vs PDL1 treatment: hPD-L1 10.0 μg/mL, 72 h
Protocol: Human peripheral blood mononuclear cells (PBMCs) were isolated from 10-15 ml of whole blood of healthy volunteers using experimental human lymphocyte separation medium (TBD sciences). The cells were washed twice with normal saline and resuspended in buffer (RPMI 1640 complete medium containing 10% FBS, SIGMA) to count the cell density. The PBMCs were dispersed and placed in a 96-well plate, 1×10^5 cells and 50 μL of buffer per well. Anti-CD3 antibody (SIGMA) and anti-CD28 antibody (SIGMA) were mixed at a ratio of 1:1 to obtain an antibody mixture. The antibody mixture was added to the wells to ensure that the final concentration of antibody was 0.8 μg/mL. At the same time, PDL1/FC fusion protein (SINO BIOLOGICAL) was added to reach a final concentration of 10.0 μg/mL, and the compound to be tested was diluted with buffer and added to the wells to reach a final concentration of 0.1 μM or 1 μM. The mixed system was incubated at 37° C. and 5% CO2 for 72 h. The supernatant was collected, and the expression level of IFN-γ was measured by ELISA MAXTM Human IFN-γ Standard Kit (BioLegend), and the increase rate was calculated. Increase rate (%)=(expression amount of compound treatment−expression amount of PDL1 treatment)/expression amount of PDL1 treatment×100%

[2] = tested on: colon cancer cell line MC38 (mouse PD-L1 knockout, human PD-L1 knockin); assay: Antitumor efficacy in vivo in PD-1 humanized mice inoculated with PD-L1 humanized MC38 cells; settings: 15 mg/kg intraperitoneal injection once per day for three weeks, compared with the control group
Text: Based on the mechanism that PD-1/PD-L1 inhibitors activated the immune system to achieve anti-tumor effects by interfering with the interaction of PD-1/PD-L1, the animal models used in vivo efficacy experiments must be animals with healthy immune systems; in addition, the species differences of PD-1/PD-L1 between animals and humans are considered. Therefore, the in vivo antitumor pharmacodynamics evaluation model of the present invention adopted PD-1 humanized mice, and the inoculated tumors were PD-L1 humanized tumor cells. This evaluation model could more accurately reflect the in vivo efficacy of the compound.
24 PD-1 humanized mice (full name of strain: C57BL/6J-Pdcd1^em1(hPDCD1)/Smoc) about 6 weeks old were purchased from Shanghai Southern Model Animal Center, and placed in SPF grade animal breeding room for observation for 1 to 2 weeks. After the animals were adapted to the raising environment, the genetically engineered colon cancer cell line MC38 (mouse PD-L1 knockout, human PD-L1 knockin) was subcutaneously inoculated to the mice near the hind leg groin, and the inoculated cell volume was 1×10^6 cells per mouse. […] During the experiment, the tumor size and mouse body weight were measured and recorded, and the mice were sacrificed at the end of the experiment. […]

human PD-L1 = human PD-L1 (Homo sapiens (Human), UniProt Q9NZQ7); assay: Biofilm interferometry (BLI, OctetRED) binding to human PD-L1/AVI; settings: 1:1 binding model
Protocol: In the experiment, the instrument OctectRED of Fortebio Company based on biofilm interferometry (BLI) technology was used to capture human PD-L1/AVI with SA chips. The concentration of antigen PD-L1/AVI was diluted to 10 μg/mL with running buffer (PBS+0.02% Tween-20+2% DMSO), and the loading time was 300 s; similarly, the analyte was also diluted to the corresponding concentrations (20 nM, 10 nM, 5 nM, 2.5 nM, 1.25 nM, 0.625 nM, 0.3125 nM) with running buffer in gradient manner, and a buffer blank control group was set at the same time. The binding time of human PD-L1/AVI to the analyte was 180 s, and the dissociation time was 300 s; the chip was regenerated with 10 mM glycine HCl, pH 1.7 solution and repeated 5-second pulse for 3 times. The data were fitted to a 1:1 binding model to determine the equilibrium dissociation constant KD.

Raji cells = assay: Cytotoxicity, Cell Titer-Glo, Raji cells; assay type: cell-based; settings: Homo sapiens, 24 hours incubation, read-out: Raji cells IC50 (cell death)
Protocol: (§1) The raji (ATCC), raw (ATCC) and PBMCs cells were suspended in buffer (RPMI 1640 complete medium containing 10% FBS, SIGMA), respectively, and the cell density was counted. The cells were transferred to wells of a 96-well plate, ensuring that the cell density of each well was 1×10^4 cells/well, and incubated for 24 hours at 37° C., 5% CO2 with compounds at different concentrations (100 μM, 50 μM, 25 μM, 12.5 μM, 6.25 μM and 3.125 μM) and buffer control solution (0.2% DMSO). To each well, 100 μL of Cell Titer-Glo Luminescent Solution (Promega) was added and shaken for 10 minutes at room temperature, and then GloMax® Navigator System was used to measure the system […], and the cell death rate was calculated. Cell death rate (%)=(1−RLUcompound/RLUcontrol)×100%, and IC50 was determined from the inhibition curve.

Raw cells = assay: Cytotoxicity, Cell Titer-Glo, Raw cells; assay type: cell-based; settings: 24 hours incubation; read-out: Raw cells IC50 (cell death)
Protocol: as §1

PBMCs cells = assay: Cytotoxicity, Cell Titer-Glo, PBMCs cells; assay type: cell-based; settings: Homo sapiens, PBMC; 24 hours incubation; read-out: PBMCs cells IC50 (cell death)
Protocol: as §1

Chain of human PD-L1 (Q9NZQ7 19-290): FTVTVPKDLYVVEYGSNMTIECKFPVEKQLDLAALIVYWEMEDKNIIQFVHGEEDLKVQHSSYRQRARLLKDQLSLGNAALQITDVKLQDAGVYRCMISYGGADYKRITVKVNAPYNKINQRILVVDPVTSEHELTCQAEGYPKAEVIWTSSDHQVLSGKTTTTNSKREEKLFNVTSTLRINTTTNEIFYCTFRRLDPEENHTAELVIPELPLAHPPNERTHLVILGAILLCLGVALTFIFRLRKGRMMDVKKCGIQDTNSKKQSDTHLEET
Chain of PD-1/PD-L1 interaction (Q9NZQ7 19-238): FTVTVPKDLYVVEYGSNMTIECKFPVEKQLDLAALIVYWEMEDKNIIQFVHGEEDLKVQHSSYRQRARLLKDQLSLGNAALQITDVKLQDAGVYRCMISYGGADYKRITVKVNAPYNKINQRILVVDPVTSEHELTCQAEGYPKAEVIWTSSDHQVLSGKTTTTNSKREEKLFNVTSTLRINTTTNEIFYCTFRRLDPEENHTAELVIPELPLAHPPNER

Q: For Cc1cc(CN[C@H](CO)C(=O)O)c(OCc2cncc(C#N)c2)cc1NCc1cccc(-c2ccccc2)c1C [Compound 5], which IC50 (PD-1/PD-L1 interaction) is on record?
A: 12 nM

Q: And the IFN-γ ([1]; compound 0.1 μM)?
A: 38300 pg/mL

Q: And the “Increase rate of IFN-γ expression vs PDL1 treatment” value ([1]; compound 0.1 μM)?
A: 79.8%

Q: What about the IFN-γ ([1]; compound 1.0 μM) of the same molecule?
A: 42400 pg/mL

Q: What about the “Increase rate of IFN-γ expression vs PDL1 treatment” value ([1]; compound 1.0 μM) of the same molecule?
A: 99.1%

Q: And the “effect on promoting IFN-γ secretion at the cellular level” value ([1]; in words, better than that of BMS202)?
A: significant effect on promoting IFN-γ secretion

Q: And the growth of tumors [2]?
A: significantly inhibit the growth of tumors

Q: What about the Kd (human PD-L1) of the same molecule?
A: 0.0162 nM

Q: What about the kon (human PD-L1) of the same molecule?
A: 2.17e+06 M⁻¹ s⁻¹

Q: What about the koff (human PD-L1; read-out: Kdis) of the same molecule?
A: 3.53e-05 s⁻¹

Q: What about the IC50 (Raji cells) of the same molecule?
A: > 100000 nM

Q: What about the IC50 (Raw cells) of the same molecule?
A: > 100000 nM

Q: And the IC50 (PBMCs cells)?
A: > 100000 nM
